Reference: ChEMBL document CHEMBL1201862, “PubChem BioAssay data set” (2004)
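Five compound concentrations were applied to cells in 96-well plates for 48 hours; endpoints were derived by simple linear interpolation of the resulting dose-response curve. GI50 is the concentration that inhibits growth by half.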 Calls of active or inactive are those of the source. No stated cut-off is given here; in the data, active = GI50 up to about 1.1 µM and inactive = higher.

Assays:
Assay in all cases: NCI-60 cell line screen, 48 h
CAKI-1 = tested on: CAKI-1
HCT-116 = tested on: HCT-116
HCT-15 = tested on: HCT-15
HL-60 = tested on: HL-60
HOP-92 = tested on: HOP-92
HT-29 = tested on: HT-29
K562 = tested on: K562
KM12 = tested on: KM12
MOLT-4 = tested on: MOLT-4
OVCAR-5 = tested on: OVCAR-5
OVCAR-8 = tested on: OVCAR-8
SF-295 = tested on: SF-295
SF-539 = tested on: SF-539
TK-10 = tested on: TK-10
U-251 = tested on: U-251
OVCAR-4 = tested on: OVCAR-4

| SMILES | GI50 (CAKI-1) | GI50 (HCT-116) | GI50 (HCT-15) [µM] | GI50 (HL-60) | GI50 (HOP-92) | GI50 (HT-29) | GI50 (K562) | GI50 (KM12) | GI50 (MOLT-4) | GI50 (OVCAR-5) | GI50 (OVCAR-8) | GI50 (SF-295) | GI50 (SF-539) | GI50 (TK-10) | GI50 (U-251) | GI50 (OVCAR-4) |
| --- | --- | --- | --- | --- | --- | --- | --- | --- | --- | --- | --- | --- | --- | --- | --- | --- |
| CCOC(=O)C1=C(C)NC2=C(C(=O)N(c3ccccc3)C2c2ccccc2)C1c1ccccc1 (stereo not drawn) | 16 µM (inactive) | 16.9 µM (inactive) | 16 | 26.1 µM (inactive) | 11.2 µM (inactive) | 19.9 µM (inactive) | 29.9 µM (inactive) | 17.1 µM (inactive) | 19.8 µM (inactive) | 16.3 µM (inactive) | 20.1 µM (inactive) | > 10 µM (inactive) | 17.8 µM (inactive) | 18.9 µM (inactive) | 15.1 µM (inactive) |  |
| CCN(/N=C1\CC2C=CCN(C2)C(=O)Cc2c1[nH]c1ccccc21)S(=O)(=O)c1ccc(C)cc1 (stereo not drawn) | 25.4 µM (inactive) | 85.9 µM (inactive) | 85.9 | 73.1 µM (inactive) |  |  | 71.6 µM (inactive) | 69.8 µM (inactive) | 59.4 µM (inactive) |  | 78 µM (inactive) | 71.1 µM (inactive) | > 100 µM (inactive) | > 100 µM (inactive) | > 100 µM (inactive) | 51.8 µM (inactive) |
| c1cncc(CSc2nc3ccccc3nc2-c2cccs2)c1 | > 10 µM (inactive) | > 100 µM (inactive) | 81.1 | 13 µM (inactive) |  | 57.1 µM (inactive) | 39.8 µM (inactive) | 48.6 µM (inactive) | 24.8 µM (inactive) | > 100 µM (inactive) | 83.9 µM (inactive) | > 100 µM (inactive) | 71.8 µM (inactive) | > 100 µM (inactive) |  | 53.6 µM (inactive) |
| O=C(NN1C(=O)C(Cl)C1c1ccccc1Cl)c1ccccc1O (stereo not drawn) |  | > 100 µM (inactive) | > 100 | > 100 µM (inactive) |  | > 100 µM (inactive) | > 100 µM (inactive) | > 100 µM (inactive) | > 100 µM (inactive) |  | > 100 µM (inactive) | > 100 µM (inactive) | > 100 µM (inactive) | > 100 µM (inactive) | > 100 µM (inactive) | > 100 µM (inactive) |
| C=C(c1ccccc1)c1cc2c(=O)[nH]ccc2n1C | 33.2 µM (inactive) |  | 27.3 | 16.3 µM (inactive) | 14.2 µM (inactive) |  | 13.8 µM (inactive) | 34.4 µM (inactive) | 27.2 µM (inactive) | 44.2 µM (inactive) | 34 µM (inactive) | 29.9 µM (inactive) |  | 55.3 µM (inactive) |  | 35.5 µM (inactive) |
| Clc1ccc(-c2nnc(-c3nn(-c4ccccc4)c4nc5ccccc5nc34)o2)cc1 | > 100 µM (inactive) | 35.9 µM (inactive) | 55 | 22.5 µM (inactive) |  | > 100 µM (inactive) | 38.2 µM (inactive) | > 100 µM (inactive) | 26.9 µM (inactive) | > 100 µM (inactive) | 82.8 µM (inactive) | > 100 µM (inactive) | > 100 µM (inactive) | > 100 µM (inactive) | 84.7 µM (inactive) | 28 µM (inactive) |
| COc1ccc(C2ON(c3ccccn3)CC=C2C)cc1 (stereo not drawn) | > 100 µM (inactive) |  | > 100 | > 100 µM (inactive) |  | > 100 µM (inactive) | > 100 µM (inactive) | > 100 µM (inactive) | 96.4 µM (inactive) | 36.5 µM (inactive) | > 100 µM (inactive) | > 100 µM (inactive) | > 100 µM (inactive) |  | > 100 µM (inactive) | > 100 µM (inactive) |
| N#CC(C(=O)C(=O)Nc1ccccc1)c1ccccc1 (stereo not drawn) | > 100 µM (inactive) | > 100 µM (inactive) | > 100 | > 100 µM (inactive) | > 100 µM (inactive) | > 100 µM (inactive) | > 100 µM (inactive) | > 100 µM (inactive) | > 100 µM (inactive) |  |  | > 100 µM (inactive) | > 100 µM (inactive) | > 100 µM (inactive) | > 100 µM (inactive) |  |
